Mutagenic call and call data for 23 molecules are collected here from PubChem BioAssay AID1259408 (Genetic Toxicology Data Bank (GENE-TOX), 2018).

This series has as its system GENE-TOX genotoxicity assays, various organisms and cells. In words: GENE-TOX mutagenicity studies. Conditions: for call: Assay Type: In vivo carcinogenicity studies.
Where [1] appears, read: Species/Cell Type: Drosophila melanogaster, Assay Type: Sex-linked recessive lethal gene mutation, Assay Code: SRL+, Evaluation Type: Evaluation A (Pre-1980).
The mark [2] stands for this setting: Species/Cell Type: Fischer rat embryo (RLV/1706) cells, Assay Type: Cell transformation, viral enhanced, Assay Code: CTR+, Evaluation Type: Evaluation A (Pre-1980).
Where [3] appears, read: Species/Cell Type: Nonhuman, Assay Code: CCG+, Evaluation Type: Evaluation A (Pre-1980).
Setting [4] is: Species/Cell Type: Nonhuman, Assay Type: Sister-chromatid exchange (SCE) in vitro, Assay Code: SC2+D, Dose Response: With dose response, Evaluation Type: Evaluation A (Pre-1980).
Where [5] appears, read: Species/Cell Type: Syrian hamster embryo (SHE) cells, Assay Type: Cell transformation, clonal assay, Assay Code: CTC+, Evaluation Type: Evaluation A (Pre-1980).
The mark [6] stands for this setting: Species/Cell Type: Mouse prostate cells, Assay Type: Cell transformation, Assay Code: CTM-, Evaluation Type: Evaluation A (Pre-1980).
[7] abbreviates: Species/Cell Type: Nonhuman, Assay Code: CCG-, Evaluation Type: Evaluation A (Pre-1980).
Setting [8] is: Species/Cell Type: Nonhuman, Assay Code: CCGT, Evaluation Type: Evaluation A (Pre-1980).
[9] abbreviates: Species/Cell Type: Salmonella typhimurium (one or more of the five standard strains: TA98, TA100, TA1535, TA1537, and TA1538), Assay Type: Histidine reverse gene mutation, Ames assay, Assay Code: SAL+*, Activation: With metabolic activation, Evaluation Type: Evaluation A (Pre-1980).
Setting [10] is: Species/Cell Type: Drosophila melanogaster, Assay Type: Sex-linked recessive lethal gene mutation, Assay Code: SRLT, Evaluation Type: Evaluation A (Pre-1980).
Setting [11] is: Species/Cell Type: Mouse prostate cells, Assay Type: Cell transformation, Assay Code: CTM+D, Dose Response: With dose response, Evaluation Type: Evaluation A (Pre-1980).
Setting [12] is: Species/Cell Type: Chinese hamster ovary (CHO) cells, Assay Type: Forward gene mutation at the HPRT locus, Assay Code: CHOT, Evaluation Type: Evaluation B (Post-1980).

The structures appear in SMILES notation. Calls of active or inactive are those of the source. No rule for the calls is given here.

On to `CC(=O)OC/N=[N+](/C)[O-]`, for which the mutagenic call was “active; positive” (Species/Cell Type: Chinese hamster lung (V79) cells, Assay Type: Forward gene mutation at the HPRT or ouabain locus, Assay Code: V79+, Evaluation Type: Evaluation A (Pre-1980)); “active; positive” under setting [1]; “active; positive” (Species/Cell Type: Escherichia coli polA (W3119 vs P3478), Assay Type: Rec-assay, DNA effects (bacterial DNA repair), Assay Code: RE1+, Evaluation Type: Evaluation A (Pre-1980)); “active; positive” under setting [2]; “active; positive” (Species/Cell Type: Mouse (BALB/c-3T3) cells, Assay Type: Cell transformation, Assay Code: CTB+, Evaluation Type: Evaluation A (Pre-1980)); “inactive; negative” (Species/Cell Type: Mouse, Sex: Male, Assay Type: Sperm morphology, Assay Code: SPI-, Evaluation Type: Evaluation A (Pre-1980)). For the same molecule, the mutagenic call under setting [4] is “active; positive”; the mutagenic call (Species/Cell Type: Nonhuman, Assay Type: Sister-chromatid exchange (SCE) in vivo, Assay Code: SC3+, Evaluation Type: Evaluation B (Post-1980)) was “active; positive”; the mutagenic call (Species/Cell Type: Saccharomyces cerevisiae, Assay Type: Mitotic recombination or gene conversion, Assay Code: YEH+, Evaluation Type: Evaluation A (Pre-1980)) is “active; positive”; the mutagenic call (Species/Cell Type: Salmonella typhimurium, Assay Type: Forward and reverse gene mutation, host-mediated assay, Assay Code: HMA+, Evaluation Type: Evaluation A (Pre-1980)) was “active; positive”; the mutagenic call (Species/Cell Type: Syrian hamster embryo (SA7/SHE) cells, Assay Type: Cell transformation, viral enhanced, Assay Code: CT7+, Evaluation Type: Evaluation A (Pre-1980)) was “active; positive”; the mutagenic call under setting [5] was “active; positive”. The call under setting [3] was “active; positive”.
Regarding `C1=Cc2cc3ccc4cccc5ccc(c2CC1)c3c45`, under setting [6], the mutagenic call was “inactive; negative”.
In the case of `CCN(CC)C(=S)S`, under setting [7], the call is “inactive; negative”. The mutagenic call (Species/Cell Type: Vicia faba, Assay Type: Chromosome aberrations, Assay Code: VIC+, Evaluation Type: Evaluation A (Pre-1980)) is “active; positive”.
In the case of `CC(=O)C(N=Nc1ccc(-c2ccc(N=NC(C(C)=O)C(=O)Nc3ccccc3)c(Cl)c2)cc1Cl)C(=O)Nc1ccccc1` (stereo not given), under setting [7], the call was “inactive; negative”.
Take `O[C@@H]1c2ccccc2-c2cc3ccc4ccccc4c3cc2[C@H]1O`: the mutagenic call is, setting by setting: (Species/Cell Type: Chinese hamster lung (V79) cells, Assay Type: Forward gene mutation at the HPRT or ouabain locus, Assay Code: V79-, Evaluation Type: Evaluation A (Pre-1980)) “inactive; negative”; under setting [6], “inactive; negative”; under setting [9], “active; positive”; (Species/Cell Type: Syrian hamster embryo (SHE) cells, Assay Type: Cell transformation, clonal assay, Assay Code: CTCT, Evaluation Type: Evaluation A (Pre-1980)) “no conclusion”. Besides, the call under setting [8] is reported as “no conclusion”.
As to `Cc1cccc(O)c1C`, the mutagenic call by setting is: (Species/Cell Type: Human lymphocytes, Assay Type: Sister-chromatid exchange (SCE) in vitro, Assay Code: SCLT, Evaluation Type: Evaluation B (Post-1980)) “no conclusion”; (Species/Cell Type: Human, Assay Type: Sister-chromatid exchange (SCE) in vitro, Assay Code: SC1T, Evaluation Type: Evaluation B (Post-1980)) “no conclusion”.
Take `Cc1c2ccccc2c(C)c2c1cc(F)c1ccccc12`: under “Species/Cell Type: Chinese hamster lung (V79) cells, Assay Type: Forward gene mutation at the HPRT or ouabain locus, Assay Code: V79-*, Activation: With metabolic activation, Evaluation Type: Evaluation A (Pre-1980)”, the mutagenic call is “inactive; negative”.
Regarding `CCN(CC)Cc1cc(CC(=O)NN)ccc1OC(C)C`, the mutagenic call (Species/Cell Type: Saccharomyces cerevisiae, Assay Type: Reverse gene mutation, Assay Code: YERT, Evaluation Type: Evaluation A (Pre-1980)) is given as “no conclusion”.
For `NC(=S)Nc1cccc2ccccc12`, the call under setting [8] is on record as “no conclusion”. The mutagenic call under setting [5] is “active; positive”.
With `COC(=O)Nc1cccc(OC(=O)Nc2cccc(C)c2)c1`, the mutagenic call is, setting by setting: (Species/Cell Type: Aspergillus nidulans, Assay Type: Aneuploidy, chromosome aberrations, Assay Code: ASN+, Evaluation Type: Evaluation A (Pre-1980)) “active; positive”; (Species/Cell Type: Saccharomyces cerevisiae, Assay Type: Mitotic recombination or gene conversion, Assay Code: YEC-, Evaluation Type: Evaluation A (Pre-1980)) “inactive; negative”.
With `O=[N+]([O-])c1ccc(C2CO2)cc1` (stereo not given), the mutagenic call reads like this: (Species/Cell Type: Human lymphocytes, Assay Type: Sister-chromatid exchange (SCE) in vitro, Assay Code: SCL+D, Dose Response: With dose response, Evaluation Type: Evaluation B (Post-1980)) “active; positive”; (Species/Cell Type: Human, Assay Type: Sister-chromatid exchange (SCE) in vitro, Assay Code: SC1+D, Dose Response: With dose response, Evaluation Type: Evaluation B (Post-1980)) “active; positive”.
As to `Nc1ccc2cc3ccccc3nc2c1`, for the setting “Species/Cell Type: Mouse (BALB/c-3T3) cells, Assay Type: Cell transformation, Assay Code: CTB-, Evaluation Type: Evaluation A (Pre-1980)”, the mutagenic call was “inactive; negative”.
`CCOC(=O)c1cc2cc3ccoc3cc2oc1=O`: the mutagenic call (Species/Cell Type: Human, Assay Type: Sister-chromatid exchange (SCE) in vitro, Assay Code: SC1+, Evaluation Type: Evaluation B (Post-1980)) was “active; positive”.
As to `CCOC(=O)N(OC(C)=O)C(C)=O`, the mutagenic call by setting is: under setting [1], “active; positive”; (Species/Cell Type: Drosophila melanogaster, Sex: Male, Assay Type: Heritable translocation test, chromosome aberrations, Assay Code: DHTT, Evaluation Type: Evaluation A (Pre-1980)) “no conclusion”.
For `Cc1c2ccccc2cc2c1ccc1ccccc12`, the mutagenic call runs as follows: (Species/Cell Type: Chinese hamster lung (V79) cells, Assay Type: Forward gene mutation at the HPRT or ouabain locus, Assay Code: V79+*, Activation: With metabolic activation, Evaluation Type: Evaluation A (Pre-1980)) “active; positive”; under setting [10], “no conclusion”; under setting [11], “active; positive”; under setting [4], “active; positive”; under setting [9], “active; positive”; under setting [5], “active; positive”. Moreover, under setting [3], the call is “active; positive”.
Turning to `CSc1ccc([C@H](O)[C@H](CO)NC(=O)C(Cl)Cl)cc1`, the mutagenic call (Species/Cell Type: Salmonella typhimurium (one or more of the five standard strains: TA98, TA100, TA1535, TA1537, and TA1538), Assay Type: Histidine reverse gene mutation, Ames assay, Assay Code: SALT, Evaluation Type: Evaluation A (Pre-1980)) is “no conclusion”.
Consider `CCN(CC)CCNc1ccc(O)c2c1C(=O)c1ccccc1S2=O` (stereo not given), for which the mutagenic call under setting [2] is “active; positive”.
For `C1C2OC2C2OC12` (stereo not given), for the setting “Species/Cell Type: Neurospora crassa, Assay Type: Forward gene mutation, Assay Code: NEF+, Evaluation Type: Evaluation A (Pre-1980)”, the mutagenic call was “active; positive”.
`c1ccc2c3c(ccc2c1)-c1cccc2cccc-3c12`: the call under setting [3] is “active; positive”.
Turning to `CCN(CCO)CCCNc1c2ccc(Cl)cc2nc2ccc(OC)cc12`, the mutagenic call by setting is: (Species/Cell Type: Chinese hamster ovary (CHO) cells, Assay Type: Forward gene mutation at the HPRT locus, Assay Code: CHO-, Evaluation Type: Evaluation A (Pre-1980)) “inactive; negative”; under setting [12], “no conclusion”.
For `c1ccc2c(c1)ccc1nc3c(ccc4ccccc43)nc12`, under setting [10], the mutagenic call was “no conclusion”.
In the case of `Cc1c2c(c(C)c3ccccc13)[C@H]1O[C@H]1c1ccccc1-2`, the mutagenic call reads like this: under setting [1], “active; positive”; under setting [11], “active; positive”; (Species/Cell Type: Salmonella typhimurium (one or more of the five standard strains: TA98, TA100, TA1535, TA1537, and TA1538), Assay Type: Histidine reverse gene mutation, Ames assay, Assay Code: SAL+, Evaluation Type: Evaluation A (Pre-1980)) “active; positive”.
With `O=[N+]([O-])c1c2ccccc2c2ccc3cccc4ccc1c2c43`, the mutagenic call was “no conclusion” under setting [12] and “active; positive” under setting [9].
